# Biological target: T1, human CB2 receptor (Homo sapiens, UniProt P34972)
# T1 construct: beta-galactosidase fragment (the cell line's name says 'bgal'; own knowledge: PathHunter enzyme-fragment-complementation lines carry a small beta-gal fragment fused to the receptor's C-terminus); host or cells: CHO-K1 (CHOK1hCB2_bgal), membranes
# Assay: [3H]CP55940 displacement assay
# Format: binding
# Conditions: for % displacement of the radioligand: 10 μM of the compound, [3H]CP55940, CHOK1hCB2_bgal membranes; for pKi ± SEM: [3H]CP55940 (~1.5 nM) displacement, CHOK1hCB2_bgal membranes, 25 °C, 2 h, three separate experiments in duplicate
# Experimental: CHOK1hCB2_bgal cells (DiscoverRx, Fremont, CA, USA) were cultured in Dulbecco’s Modified Eagle’s Medium/Nutrient Mixture F-12 Ham supplemented with 10% fetal calf serum, 1 mM glutamine, 50 µg/mL penicillin, 50 µg/mL streptomycin, […] hygromycin and 800 µg/mL geneticin in a humidified atmosphere at 37 °C and 5% CO2. Cells were subcultured twice a week at a ratio of 1:20 on 10-cm diameter plates by trypsinization. For membrane preparation, the cells were subcultured with a ratio of 1:10 and transferred to 15-cm diameter plates. The cells were collected by scraping in 5 mL phosphate-buffered saline (PBS) and centrifuged at 1000 g for 5 min. Pellets derived from 30 plates were combined and resuspended in 20 mL cold Tris–HCl, MgCl2 buffer (50 mM Tris–HCl (pH 7.4), 5 mM MgCl2). The cell suspension was homogenized using an UltraTurrax homogenizer (Heidolph Instruments Schwabach, Germany). Membranes and cytosolic fractions were separated by centrifugation in a Beckman Optima LE-80 K ultracentrifuge (Beckman Coulter Inc., Fullerton, CA, USA) at 100,000 g for 20 min at 4 °C. The supernatant was discarded. The pellet was resuspended in 10 mL cold Tris–HCl, MgCl2 buffer and homogenization and centrifugation steps were repeated. The membranes were resuspended in 10 mL cold Tris–HCl, MgCl2 buffer. Aliquots of 50 µL were stored at -80 °C until further use. The protein concentration was determined using the Pierce™ BCA Protein Assay Kit (ThermoFisher Scientific, Waltham, MA, USA).
# At first, all compounds were tested at a final concentration of 10 µM. […] Six different concentrations of the compounds were added by an HP D300 digital dispenser (Tecan Group Ltd, Männedorf, Switzerland). In order to determine the total binding, a control without test compound was included. Nonspecific binding was determined in the presence of 10 µM AM630. The total assay volume was 100 µL. The final concentration of DMSO was ≤ 0.25%. The incubation was terminated by rapid vacuum filtration through GF/C 96-well filter plates (PerkinElmer, Waltham, MA), to separate the bound and free radioligand, using a PerkinElmer Filtermate-harvester (PerkinElmer, Groningen, The Netherlands). Filters were subsequently washed […] with ice-cold assay buffer. The filter-bound radioactivity was determined by scintillation spectrometry using a Microbeta2® 2450 microplate counter (PerkinElmer, Boston, MA), after addition of 25 μl MicroScint 20 (PerkinElmer, Groningen, The Netherlands) and 3 h incubation.
# All experimental data were analyzed using GraphPad Prism 7 [36]. The data were normalized to percentage specific radioligand binding, where the total binding is 100% and nonspecific binding is 0%. […] All data were obtained from three separate experiments performed in duplicate.
# T1 sequence (P34972 whole entry, the tested form may be a part): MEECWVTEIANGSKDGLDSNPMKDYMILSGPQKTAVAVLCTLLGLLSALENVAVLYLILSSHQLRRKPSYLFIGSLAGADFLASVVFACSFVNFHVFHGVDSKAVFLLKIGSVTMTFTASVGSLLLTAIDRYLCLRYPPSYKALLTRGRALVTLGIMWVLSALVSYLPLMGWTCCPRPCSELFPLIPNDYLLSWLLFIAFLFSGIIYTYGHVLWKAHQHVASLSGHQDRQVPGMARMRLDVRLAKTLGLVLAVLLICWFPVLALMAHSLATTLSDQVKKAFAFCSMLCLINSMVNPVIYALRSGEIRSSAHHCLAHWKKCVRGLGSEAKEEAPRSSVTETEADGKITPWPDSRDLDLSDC
compound,measurement,value
CC(C)C(NC(=O)CN1CCN(c2nccn2C)CC1)c1ccc2c(c1)OCCCO2 (centres unmarked) [Z1317886912],% displacement of the radioligand,3%
Cc1ccc(NC(=O)C2CCC(C(C)(C)C)CC2)cc1S(=O)(=O)N1CCOCC1 (centres unmarked) [Z26476746],pKi ± SEM,6.54 ± 0.14
Cc1ccc(C(=O)NC23CC4CC(CC(C4)C2)C3)cc1S(=O)(=O)N1CCCCC1 [Z27687312],pKi ± SEM,7.22 ± 0.46
CC1(C)C2CCC1(C)C(NC(=O)C1CCN(S(=O)(=O)c3ccc(F)c(F)c3)CC1)C2 (centres unmarked) [Z28357392],% displacement of the radioligand,26%
CCn1cc(C(=O)NCC2(N3CCOCC3)CCCCC2)c(=O)c2ccc(C)nc21 [Z27019562],% displacement of the radioligand,30%
CC1(CN2CCOCC2)CCN(CC(=O)N2CCc3sccc3C2)CC1 [Z1523102560],% displacement of the radioligand,18%
CCC(NC(=O)c1cccc(S(=O)(=O)N2CCOCC2)c1)C12CC3CC(CC(C3)C1)C2 (centres unmarked) [Z28609248],% displacement of the radioligand,16%
Cc1ccc(C(=O)NC2CCCC(C)C2C)cc1S(=O)(=O)N1CCOCC1 (centres unmarked) [Z32934509],pKi ± SEM,6.47 ± 0.02
COc1ccc2c(c1)c(C(=O)N(C)CC(C)OC)c(C)n2C1CC1 (centres unmarked) [Z2094674960],% displacement of the radioligand,0%
CCN(CC)c1ccc(S(=O)(=O)N2CCOCC2)cc1NS(=O)(=O)CC12CCC(CC1=O)C2(C)C (centres unmarked) [Z55473655],% displacement of the radioligand,7%
CCc1ccc(C(=O)NC(C)C23CC4CC(CC(C4)C2)C3)cc1S(=O)(=O)N1CCOCC1 (centres unmarked) [Z336532434],pKi ± SEM,7.67 ± 0.17
CCOC(=O)c1c(NC(=O)CC23CC4CC(CC(C4)C2)C3)sc2c1CCCC2 [Z27680708],pKi ± SEM,7.46 ± 0.32
CCC(C)(C)C1CCC(NC(=O)c2cc(S(=O)(=O)N3CCOCC3)ccc2C)CC1 (centres unmarked) [Z91179667],% displacement of the radioligand,29%
CCCCn1nc(C(=O)NC2CC3CCC2(C)C3(C)C)c2ccccc2c1=O (centres unmarked) [Z28357657],pKi ± SEM,6.81 ± 0.29
COc1ccc(C=C(C(=O)NC2CCCCC2)C(=O)NC2CCCCC2)cc1OC [Z46091805],% displacement of the radioligand,38%
CC1(C)C2CC=C(/C=N/NC(=O)CCc3ccc(S(=O)(=O)N4CCOCC4)cc3)C1C2 (centres unmarked) [Z44867007],% displacement of the radioligand,0%
Cc1nn(-c2ccccc2)c2sc(C(=O)NC34CC5CC(CC(C5)C3)C4)cc12 [Z27687279],% displacement of the radioligand,38%

# — article PMC6836644, “A multiple classifier system identifies novel cannabinoid CB2 receptor ligands” (Journal of Cheminformatics, 2019)
